Measured values taken from the NIST ThermoML archive (doi:10.1021/je034022n).
± gives the expanded uncertainty stated by the source.

Conditions: 101.33 kPa, Liquid

Row | Compound | mass density (298.15 K) [kg/m3] | speed of sound (298.15 K) [m/s] | mass density (303.15 K) [kg/m3] | mass density (308.15 K) [kg/m3] | speed of sound (308.15 K) [m/s] | mass density (313.15 K) [kg/m3]
1 | C=C(C)C(=O)OC [methyl methacrylate] | 937.63 ± 0.92 | 1181 ± 5 | 931.74 ± 0.96 | 925.74 ± 1 | 1153 ± 5 | 920.26 ± 1
2 | c1ccccc1 [benzene] | 873.61 ± 1.3 | 1299 ± 6 | 868.29 ± 1.3 | 862.96 ± 1.4 | 1260 ± 5 | 857.97 ± 1.4
3 | Cc1ccc(C)cc1 [1,4-dimethylbenzene] | 856.62 ± 1.4 | 1308 ± 6 | 852.25 ± 1.4 | 847.88 ± 1.5 | 1276 ± 6 | 843.64 ± 1.5
4 | Cc1ccccc1 [toluene] | 862.2 ± 1.4 | 1304 ± 6 | 857.55 ± 1.4 | 852.86 ± 1.4 | 1262 ± 5 | 848.16 ± 1.5
5 | CCCCOCCO [2-butoxyethan-1-ol] | 896.25 ± 1.2 | 1304 ± 6 | 892.03 ± 1.2 | 888.91 ± 1.2 | 1285 ± 6 | 883.4 ± 1.2
